Data from paper PMC8370991, “Structural basis for the inhibition of HTLV-1 integration inferred from cryo-EM deltaretroviral intasome structures” (Nature Communications, 2021).
Like-named read-outs stand apart in the source and are kept apart here.

Columns and labels:
recombinant HTLV-1 IN [1] = biological target: T1, recombinant HTLV-1 IN (Human T-cell leukemia virus 1, UniProt P03362); settings: previously obtained values, cited from earlier work
T1 construct: made in house

STLV-1 IN(A219E) = experiment: In vitro strand transfer assay with STLV-1 IN(A219E); format: biochemical; parameters: STLV-1 A219E strand transfer activity: unit not given here
Description: (§1) For STLV-1 IN, the reaction conditions were 25 mM BTP-HCl pH 6, 0.1 μM STLV-1 IN, 2 μM vDNA, 60 mM NaCl, 13.28 mM DTT, 10 mM MgCl2, 10 μM ZnCl2. STLV-1 IN and LEDGF/ΔIBD-B56γ were co-incubated at the above conditions at a 2:1 molar ratio, at 4 °C for 30 min. Donor vDNA was then added and the mixture was co-incubated at 37 °C for 10 min. For INSTI dose–response experiments, either the INSTI or DMSO control was then added, the sample was mixed and kept at 4 °C for an additional 15 min. Strand-transfer reactions were initiated by the addition of 300 ng of pGEM-9Zf(-) supercoiled plasmid DNA and stopped after 15 min of 37 °C incubation by adding 0.5% SDS and 25 mM EDTA, pH 8.0.
(§2) Proteins were degraded by incubation with 30 μg of proteinase K (Roche) at 37 °C for 1 h. DNA was precipitated at −20 °C overnight in the presence of ethanol supplemented with 20 μg of glycogen and then resuspended in 1.5× agarose loading dye. The DNA products were separated by electrophoresis through 1.5% agarose gel and stained with ethidium bromide and imaged using the BioRad GelDox XR + imager. The data were analysed and the IC50 calculated as previously described. In brief, the DNA band that corresponds to the concerted integration product was quantified by densitometry in ImageLab 4.1 (Bio-Rad). All experiments were done in triplicate. Quantified data points were fitted to dose–response curves in Prism 9. The cumulative standard deviation for each drug was calculated as an average of the upper limit and lower limit values: Lowerlimit=IC50/10^logSE(IC50) Upperlimit=IC50×10^logSE(IC50)

HIV-1 = settings: cited from earlier work
HTLV-1 = settings: cited from earlier work
recombinant HTLV-1 IN [2] = biological target: T1, recombinant HTLV-1 IN; experiment: In vitro integration strand transfer assay with HTLV-1 IN; format: biochemical; settings: INSTI at 634 nM
Description: We used in vitro strand transfer assays to screen this small molecule library for its ability to inhibit recombinant HTLV-1 IN. The enzyme was incubated with an oligonucleotide vDNA donor mimic in the presence or absence of INSTIs and was allowed to react with a supercoiled plasmid mimicking target DNA. During the screening, the concentration of each compound was adjusted to 634 nM to provide optimal resolution of efficacy between well- and under-performing compounds.
The donor vDNA that mimics the 3′-processed LTR of HTLV-1 or STLV-1 DNA was preassembled by annealing the U5_S20Q_UP and U5_S20Q_B or MarB43_U5_S30UP or MarB43_U5_S30B oligonucleotides, respectively (Supplementary Table 4) in 100 mM Tris pH 7.4, 400 mM NaCl. For HTLV-1 IN, strand transfer reactions were conducted in a solution of 24.3 mM PIPES pH 6.0, 138.4 mM NaCl, 16.6 mM MgCl2, 5.8 μM ZnCl2, 12.7 mM DTT, 0.53 μM donor DNA and 4 μg of HTLV-1 IN[9],[39]. In brief, the reaction was incubated at RT for 15 min in the presence of an INSTI or dimethyl sulfoxide (DMSO) control and the reaction was started by the addition of 300 ng of pGEM-9Zf(-) supercoiled plasmid DNA. The reaction was incubated for 1 h at 37 °C and stopped by adding 0.5% SDS and 25 mM ethylenediaminetetraacetic acid (EDTA), pH 8.0.
as §2

STLV-1 IN (WT) = experiment: In vitro strand transfer assay with wild-type STLV-1 IN; format: biochemical; parameters: STLV-1 WT strand transfer activity: unit not given here
Description: as §1, §2

[3] = log10 concentration -3.69897, column 1 of 3
[4] = log10 concentration -3.69897, column 2 of 3
[5] = log10 concentration -4.69897, column 1 of 3
[6] = log10 concentration -4.69897, column 2 of 3
[7] = log10 concentration -5.69897, column 1 of 3
[8] = log10 concentration -5.69897, column 2 of 3
[9] = log10 concentration -6.19791, column 1 of 3
[10] = log10 concentration -6.19791, column 2 of 3
[11] = log10 concentration -6.69897, column 1 of 3
[12] = log10 concentration -6.69897, column 2 of 3
[13] = log10 concentration -7.19791, column 1 of 3
[14] = log10 concentration -7.19791, column 2 of 3
[15] = log10 concentration -7.69897, column 1 of 3
[16] = log10 concentration -7.69897, column 2 of 3
[17] = log10 concentration -8.69897, column 1 of 3
[18] = log10 concentration -8.69897, column 2 of 3
[19] = log10 concentration -10.699, column 1 of 3
[20] = log10 concentration -10.699, column 2 of 3

T1 sequence (P03362 1168-1462): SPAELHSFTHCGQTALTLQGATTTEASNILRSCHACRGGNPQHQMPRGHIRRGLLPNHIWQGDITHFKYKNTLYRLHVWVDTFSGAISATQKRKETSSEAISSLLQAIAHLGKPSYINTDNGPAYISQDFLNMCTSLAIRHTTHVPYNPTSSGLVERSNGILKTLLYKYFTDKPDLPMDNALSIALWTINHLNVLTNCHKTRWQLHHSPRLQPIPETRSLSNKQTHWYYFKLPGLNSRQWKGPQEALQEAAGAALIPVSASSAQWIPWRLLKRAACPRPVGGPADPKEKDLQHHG

Cc1nnc(C(=O)NC(C)(C)c2nc(C(=O)NCc3ccc(F)cc3)c(O)c(=O)n2C)o1 [Raltegravir]
IC50 (recombinant HTLV-1 IN [1]; Replicate 1, read-out: HTLV-1 IN strand transfer IC50): 477 nM | IC50 (recombinant HTLV-1 IN [1]; Replicate 2, read-out: HTLV-1 IN strand transfer IC50): 425 nM | IC50 (recombinant HTLV-1 IN [1]; Replicate 3, read-out: HTLV-1 IN strand transfer IC50): 344 nM | IC50 (recombinant HTLV-1 IN [1]; integrase strand-transfer, read-out: HTLV-1 IC50 ± stdev): 410 ± 78.5 nM | IC50 with STLV-1 IN A219E compared with wild-type STLV-1 IN (STLV-1 IN(A219E); Supplementary Fig. 9): nearly identical | STLV-1 A219E strand transfer activity (STLV-1 IN(A219E); log10 concentration -3.69897): 4.375 | STLV-1 A219E strand transfer activity (STLV-1 IN(A219E); [3]): 11.7647 | STLV-1 A219E strand transfer activity (STLV-1 IN(A219E); [4]): 5.393 | STLV-1 A219E strand transfer activity (STLV-1 IN(A219E); log10 concentration -4.69897): 6.875 | STLV-1 A219E strand transfer activity (STLV-1 IN(A219E); [5]): 7.843 | STLV-1 A219E strand transfer activity (STLV-1 IN(A219E); [6]): 4.103 | STLV-1 A219E strand transfer activity (STLV-1 IN(A219E); log10 concentration -5.69897): 7.8125 | STLV-1 A219E strand transfer activity (STLV-1 IN(A219E); [7]): 11.7647 | STLV-1 A219E strand transfer activity (STLV-1 IN(A219E); [8]): 9.8476 | STLV-1 A219E strand transfer activity (STLV-1 IN(A219E); log10 concentration -6.19791): 12.6562 | STLV-1 A219E strand transfer activity (STLV-1 IN(A219E); [9]): 16.6667 | STLV-1 A219E strand transfer activity (STLV-1 IN(A219E); [10]): 12.4267 | STLV-1 A219E strand transfer activity (STLV-1 IN(A219E); log10 concentration -6.69897): 25.4688 | STLV-1 A219E strand transfer activity (STLV-1 IN(A219E); [11]): 27.9412 | STLV-1 A219E strand transfer activity (STLV-1 IN(A219E); [12]): 28.136 | STLV-1 A219E strand transfer activity (STLV-1 IN(A219E); log10 concentration -7.19791): 49.375 | STLV-1 A219E strand transfer activity (STLV-1 IN(A219E); [13]): 64.2157 | STLV-1 A219E strand transfer activity (STLV-1 IN(A219E); [14]): 59.4373 | STLV-1 A219E strand transfer activity (STLV-1 IN(A219E); log10 concentration -7.69897): 90.625 | STLV-1 A219E strand transfer activity (STLV-1 IN(A219E); [15]): 108.333 | STLV-1 A219E strand transfer activity (STLV-1 IN(A219E); [16]): 86.2837 | STLV-1 A219E strand transfer activity (STLV-1 IN(A219E); log10 concentration -8.69897): 101.406 | STLV-1 A219E strand transfer activity (STLV-1 IN(A219E); [17]): 107.843 | STLV-1 A219E strand transfer activity (STLV-1 IN(A219E); [18]): 97.5381 | STLV-1 A219E strand transfer activity (STLV-1 IN(A219E); log10 concentration -10.699): 97.9688 | STLV-1 A219E strand transfer activity (STLV-1 IN(A219E); [19]): 103.922 | STLV-1 A219E strand transfer activity (STLV-1 IN(A219E); [20]): 99.8828 | EC50 (HIV-1; HIV-1 infection model, supplementary ref 18, read-out: HIV-1 EC50 ± stdev): 9.4 ± 1.4 nM | EC50 (HIV-1; previously reported, read-out: EC50, infection by wild-type HIV-1): 4 ± 2 nM | EC50 (HTLV-1; MT-2-Jurkat cell-to-cell infection, read-out: HTLV-1 EC50): 6.42 ± 4.24 nM | EC50 (HTLV-1; Replicate 1, previously reported values, read-out: HTLV-1 infection EC50): 7.85 nM | EC50 (HTLV-1; Replicate 2, previously reported values, read-out: HTLV-1 infection EC50): 8.18 nM | EC50 (HTLV-1; Replicate 3, previously reported values, read-out: HTLV-1 infection EC50): 4.08 nM | HTLV-1 IN strand transfer activity (No drug = 100) (recombinant HTLV-1 IN [2]; Replicate 1): 34.4506% | HTLV-1 IN strand transfer activity (No drug = 100) (recombinant HTLV-1 IN [2]; Replicate 2): 36.5909% | sensitivity of STLV-1 IN to the inhibitor (STLV-1 IN (WT); Supplementary Fig. 9): highly sensitive | STLV-1 WT strand transfer activity (STLV-1 IN (WT); log10 concentration -3.69897): 15.0259 | STLV-1 WT strand transfer activity (STLV-1 IN (WT); [3]): 3.382 | STLV-1 WT strand transfer activity (STLV-1 IN (WT); [4]): 1.339 | STLV-1 WT strand transfer activity (STLV-1 IN (WT); log10 concentration -4.69897): 15.0259 | STLV-1 WT strand transfer activity (STLV-1 IN (WT); [5]): 1.932 | STLV-1 WT strand transfer activity (STLV-1 IN (WT); [6]): 3.125 | STLV-1 WT strand transfer activity (STLV-1 IN (WT); log10 concentration -5.69897): 25.9067 | STLV-1 WT strand transfer activity (STLV-1 IN (WT); [7]): 14.0097 | STLV-1 WT strand transfer activity (STLV-1 IN (WT); [8]): 13.3929 | STLV-1 WT strand transfer activity (STLV-1 IN (WT); log10 concentration -6.19791): 38.342 | STLV-1 WT strand transfer activity (STLV-1 IN (WT); [9]): 20.7729 | STLV-1 WT strand transfer activity (STLV-1 IN (WT); [10]): 15.625 | STLV-1 WT strand transfer activity (STLV-1 IN (WT); log10 concentration -6.69897): 40.9326 | STLV-1 WT strand transfer activity (STLV-1 IN (WT); [11]): 26.57 | STLV-1 WT strand transfer activity (STLV-1 IN (WT); [12]): 43.3036 | STLV-1 WT strand transfer activity (STLV-1 IN (WT); log10 concentration -7.19791): 63.2124 | STLV-1 WT strand transfer activity (STLV-1 IN (WT); [13]): 62.3188 | STLV-1 WT strand transfer activity (STLV-1 IN (WT); [14]): 68.75 | STLV-1 WT strand transfer activity (STLV-1 IN (WT); log10 concentration -7.69897): 94.3005 | STLV-1 WT strand transfer activity (STLV-1 IN (WT); [15]): 86.4734 | STLV-1 WT strand transfer activity (STLV-1 IN (WT); [16]): 94.1964 | STLV-1 WT strand transfer activity (STLV-1 IN (WT); log10 concentration -8.69897): 91.7098 | STLV-1 WT strand transfer activity (STLV-1 IN (WT); [17]): 100.483 | STLV-1 WT strand transfer activity (STLV-1 IN (WT); [18]): 99.1071 | STLV-1 WT strand transfer activity (STLV-1 IN (WT); log10 concentration -9.69897): 106.218 | STLV-1 WT strand transfer activity (STLV-1 IN (WT); log10 concentration -9.69897, column 1 of 3): 101.449 | STLV-1 WT strand transfer activity (STLV-1 IN (WT); log10 concentration -9.69897, column 2 of 3): 100.446 | STLV-1 WT strand transfer activity (STLV-1 IN (WT); log10 concentration -10.699): 100.518 | STLV-1 WT strand transfer activity (STLV-1 IN (WT); [19]): 102.415 | STLV-1 WT strand transfer activity (STLV-1 IN (WT); [20]): 99.5536
